From paper PMC11477000, “Enantioselective Binding of Proton Pump Inhibitors to Alpha1-Acid Glycoprotein and Human Serum Albumin—A Chromatographic, Spectroscopic, and In Silico Study” (International Journal of Molecular Sciences, 2024)
Several values for one entry are separate records, joined by “and”; a condition that tells them apart may be missing. Equal values may be shown once. Read-outs that look alike come from different tables or passages of the source.

How the values were obtained:
BSA = conditions: racemic, ref [39]; cited from earlier work
[1] = molecular target: human serum albumin (HSA) (Homo sapiens, UniProt P02768); experiment: Bound percentage by HPLC on HSA column, extrapolation to zero organic modifier; assay type: in vitro ADME; conditions: for Bound percentage (b%), average: average of IPA, EtOH, MeOH
Method: (§1) Chromatographic columns containing proteins can be used to determine the percentage of drug binding. A plot of the natural logarithm of the retention factors against the proportion of organic modifiers was created. […] The intercept of these linear equations can be used to calculate the bound percentage according to Equation (4) (see in Section 3.2).
(§2) Chromatographic measurements were carried out on two separate HPLC systems. The AGP binding study was performed on a Waters 2695e chromatographic system paired with a Waters 2996 PDA detector, controlled by Empower 3 FR5 (Waters Corp., Milford, MA, USA), while the HSA binding study was performed on an Agilent 1100 HPLC system, consisting of an inline degasser (G1322A), a quaternary pump (G1311A), an automatic injector (G1329A) paired with sample thermostat (G1330A), a column thermostat (G1316A), and a diode array detector (G1315A) with Agilent Chemstation B04.03-SP2 software (Agilent, Bronnwald, Germany). For the binding studies, two protein-based chiral stationary phases were utilized. The chromatographic binding study for AGP was conducted on a ChromTech Chiral-AGP column (150 mm × 4.0 mm; ChromTech Ltd., Congleton, UK), while the binding study for HSA was performed on a Daicel Chiralpak HSA column (50 mm × 4.0 mm; Daicel Corp., Osaka, Japan). The detection wavelength was 210 nm for all measurements. The stock solutions of PPIs were prepared at a concentration of 1 mg/mL in MeOH. Subsequent dilutions were prepared using water. The injected samples were mixed and diluted from the stock solutions. The final concentration for the eutomer was 0.2 mg/mL, and for the distomer, it was 0.1 mg/mL. A volume of 2 μL was injected. To mitigate the instability of PPIs in aqueous solutions, the samples were kept at a temperature of 4 °C. Cooling the samples to 4 °C prevented significant decomposition for a period of 24 h. After 24 h, new samples were prepared for injection. Chromatographic parameters were calculated based on the following equations. The retention factor (k) was calculated as:(1) k=(tr−t0)/t0 where tr is the retention time of the investigated analyte, and t0 is the dead time, determined as the first peak appearance in the chromatogram. Resolution was calculated based on the following equation:(2) Rs=2(t2−t1)/(w1+w2) where t2 and t1 are the retention times of the second and first eluted enantiomers, respectively, while w is the peak width. The separation factor (α) was calculated as follows:(3) α=k2/k1 where k1 and k2 are the retention factors of the first- and second-eluting enantiomers, respectively. The k values were also used to calculate the protein-bound percentage (b%) using Equation (4):(4) b%=k/1+k×100

AGP = experiment: UV titration (Benesi–Hildebrand) with AGP; assay type: binding, human; conditions: n = 3, 1 μM AGP, pH 7.4 phosphate buffer, 24 °C, 278 nm; for Kd: human, pH 7.4, UV titration, read-out: logKAGP ± Stdev (logarithm of stability constant) (converted)
Method: (§3) The UV-Vis absorption assay is a straightforward and relatively simple method to examine the interactions between small molecules and macromolecules. Changes in the structure of the protein caused by the interacting ligand can lead to alterations in the absorption spectrum. […] Fixed wavelength measurements were conducted at the absorption maxima of AGP and HSA. […] The change in the absorbance and wavelength maximum in the UV spectra during the titration refers to the complex formation between proteins and PPIs. The Benesi–Hildebrand method was used to determine the stability constants based on Equation (7).
(§4) The absorption spectra were recorded on a Jasco V-750 spectrophotometer (Jasco, Tokyo, Japan) at 24 °C using 1.0 cm path-length quartz cuvettes. Then, 1 μM HSA and AGP were dissolved in a sodium phosphate buffer solution (pH 7.4; 0.1 M) and their concentration was kept constant. The PPIs were dissolved in DMSO, and further diluted with the AGP or HSA solution. Next, 1000 μL of 1 μM HSA and AGP solutions was titrated with the PPI stock solution in 1 μL steps. The concentration of the PPIs was set to 4.00, 7.98, 11.96, 15.94, 19.90, 23.86, 27.81, and 31.75 μM. The binding constants were determined using the Benesi–Hildebrand equation:(7) A0/A−A0=εPPI/εAPPI−εPPI+εPPI/εAPPI−εPPI×1/K×[C] where A0 is the absorbance of the HSA or AGP at 278 nm, A is the absorbance of the formed complex also at 278 nm, εPPI is the extinction coefficient of the actual PPI, εAPPI is the extinction coefficient of the albumin or AGP and PPI complex, K is the binding coefficient, and [C] is the concentration of the investigated PPI. The plot of A0/A − A0 versus C^−1 has a slope of K^−1. All experiments were performed in triplicate.

HSA [2] = molecular target: T1, HSA (Homo sapiens, UniProt P02768); experiment: UV titration (Benesi–Hildebrand) with HSA; assay type: binding; conditions: n = 3, 1 μM HSA, pH 7.4 phosphate buffer, 24 °C, 278 nm, read-out: logKHSA ± Stdev. (logarithm of stability constant) (converted)
T1 construct: purchased Sigma-Aldrich
Method: as §3, §4

HSA [3] = molecular target: T1, HSA; conditions: ref [43]; cited from earlier work
[4] = system: α1-acid glycoprotein (AGP); experiment: Bound percentage by HPLC on AGP column, extrapolation to zero organic modifier; assay type: in vitro ADME, human; conditions: for Bound percentage (b%), average: average of IPA, EtOH, MeOH
Method: as §1
as §2, with “Cooling the samples to 4 °C prevented significant decomposition for a period of 24 h.” left out

HSA [5] = molecular target: T1, HSA; conditions: ref [41]; cited from earlier work
[6] = extrapolation to zero percent EtOH
[7] = extrapolation to zero percent IPA
[8] = extrapolation to zero percent MeOH

T1 sequence (P02768 25-609): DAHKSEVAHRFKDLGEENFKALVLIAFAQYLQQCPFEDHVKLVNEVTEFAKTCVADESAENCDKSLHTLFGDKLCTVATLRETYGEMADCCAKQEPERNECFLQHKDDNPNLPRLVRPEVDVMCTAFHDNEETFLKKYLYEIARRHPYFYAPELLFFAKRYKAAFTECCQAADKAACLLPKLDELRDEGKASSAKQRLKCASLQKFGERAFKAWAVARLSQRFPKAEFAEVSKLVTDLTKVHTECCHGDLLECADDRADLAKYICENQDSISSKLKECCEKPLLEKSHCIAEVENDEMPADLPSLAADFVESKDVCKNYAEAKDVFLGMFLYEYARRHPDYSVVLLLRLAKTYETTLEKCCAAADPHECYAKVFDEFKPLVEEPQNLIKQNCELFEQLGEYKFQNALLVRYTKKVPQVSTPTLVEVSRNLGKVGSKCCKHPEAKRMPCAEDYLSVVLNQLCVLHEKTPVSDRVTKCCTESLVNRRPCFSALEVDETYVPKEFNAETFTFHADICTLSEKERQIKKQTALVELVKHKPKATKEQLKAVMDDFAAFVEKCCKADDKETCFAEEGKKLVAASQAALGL
human serum albumin (HSA), sequence (P02768 25-609): as above

Row | SMILES | logK (BSA) | Bound percentage (b%), average [1] | Bound percentage (b%) [1, 6] [%] | Bound percentage (b%) [1, 7] [%] | Bound percentage (b%) [1, 8] [%] | Kd (AGP) [µM] | Kd (HSA [2]) [µM] | logK (HSA [3]) | Bound percentage (b%), average [4] | Bound percentage (b%) [4, 6] [%] | Bound percentage (b%) [4, 7] [%] | Bound percentage (b%) [4, 8] [%] | logKAGP ± Stdev (logarithm of stability constant) (AGP; UV titration) | logK (HSA [5])
1 | COc1ccnc(C[S+]([O-])c2nc3cc(-n4cccc4)ccc3[nH]2)c1C (centres unmarked) [Ilaprazole] | 5.63 |  |  |  |  |  |  |  |  |  |  |  |  | 
2 | COc1ccnc(C[S+]([O-])c2nc3ccc(OC(F)F)cc3[nH]2)c1OC (centres unmarked) [Pantoprazole] | 5.04 |  |  |  |  |  |  |  |  |  |  |  |  | 
3 | COc1ccc2[nH]c([S@+]([O-])Cc3ncc(C)c(OC)c3C)nc2c1 [R-omeprazole] |  | 91.76% and 91.76 ± 1.08% | 92.97 | 91.15 | 91.03 | 20.4 | 33.9 | 3.50 |  |  |  |  |  | 
4 | COCCCOc1ccnc(C[S@@+]([O-])c2nc3ccccc3[nH]2)c1C [R-rabeprazole, dexrabeprazole] |  | 88.84% and 88.84 ± 0.59% | 88.85 | 88.24 | 89.42 | 31.6 | 46.8 |  | 96.78% and 96.78 ± 1.77% | 96.69 | 98.60 | 95.07 | 4.59 ± 0.03 | 
5 | COc1ccc2nc([S@@+]([O-])Cc3ncc(C)c(OC)c3C)[nH]c2c1 [S-omeprazole, esomeprazole] |  | 91.76% and 91.76 ± 1.08% | 92.97 | 91.15 | 91.03 | 33.9 | 95.5 | 3.73 |  |  |  |  |  | 4.70
6 | COCCCOc1ccnc(C[S@+]([O-])c2nc3ccccc3[nH]2)c1C [S-rabeprazole] |  | 88.84% and 88.84 ± 0.59% | 88.85 | 88.24 | 89.42 | 17.4 | 38 |  | 97.98% and 97.98 ± 1.51% | 98.17 | 99.39 | 96.39 |  | 
